{
  "source": "patent US6855801B1",
  "about": "“Peptides modulating activities of heparin other glycosaminoglycans or proteoglycans” (Thomas Jefferson University, priority 1999, dated 2005)",
  "key": {"[1]": {"experiment": "Affinity coelectrophoresis (ACE) of radiolabeled heparin through peptides", "assay_type": "binding, pig", "conditions": "for heparin-binding affinity in words: ACE, low Mr heparin", "text": "Preparation of Radiolabeled Heparin—Whole heparin from pig intestinal mucosa (Sigma) was tyramine end-labeled and radiolabeled with Na^125I (Amersham, Pharmacia Biotech, Inc., Piscataway, N.J.) to an average specific activity ≅1.0×10^7 CPM/μg as described^59. Radiolabeled heparin was fractionated on Sephadex G-100 (Bio-Rad Laboratories, Hercules, Calif.) and the final ≅12% of material to elute was retained as the low Mr material of ≦6,000 (Jordan, R., D. Beeler, and R. Rosenberg, J Biol Chem, 254:2902-2913, 1979; Laurent, T. C., et al., Biochem J, 175:691-701, 1978).\nBriefly, peptides were dissolved in 1×ACE running buffer, 50 mM sodium 3-(N-morpholino)-2-hydroxypropanesulfonate (MOPSO, Sigma)/125 mM sodium acetate, pH 7.0, and serially diluted in running buffer at 2× concentrations. Peptides were then mixed 1:1 with 2% agarose/1% CHAPS, 3-[(3-cholamidopropyl)dimethylammonio]-1-propanesulfonate, (Boehringer Mannheim, Indianapolis, Ind.), and loaded into wells of a 1% agarose gel. Radiolabeled heparin or HUVEC PGs were then loaded in a slot on the […] side of the gel, and electrophoresed through the peptide-containing wells, towards the cathode. Gels were dried and PG mobility was measured with a Phosphorimager (Molecular Dynamics, Sunnyvale, Calif.) by scanning each protein lane and determining the relative radioactivity content per. 88-μm pixel through the length of the lane. Retardation coefficient (R) measurements, binding isotherm curve fittings, and apparent Kd value determinations were calculated as detailed previously (Lee, M. K., and A. D. Lander, Proc Nat Acad Sci USA, 88:2768-2772, 1991; San Antonio, J. D., et al, Biochem, 32:47464755, 1993).\nSome peptides were also analyzed by ACE for heparin-binding under reducing conditions. Thus, after serial peptide dilution, β-mercaptoethanol (β-ME) was added at 5% to each peptide sample, and these were mixed 1:1 with 2% agarose/1% CHAPS/5% β-ME, and added to the ACE gel sample wells as usual."}, "[2]": {"system": "unfractionated heparin", "experiment": "Reversal of anti-Factor Xa activity in vitro (Stachrom Heparin chromogenic assay), unfractionated heparin", "assay_type": "biochemical, human", "conditions": "0.5 U/ml anti-Factor Xa activity", "procedure": "(§1) Solutions of Lovenox, Orgaran, or unfractionated heparin (Sigma) were prepared in 0.32% sodium citrate or in normal human plasma to contain 0.5 U/ml anti-FXa activity. Calibrations were made against the standards provided by the Stachrom Heparin (Diagnostica Stago) assay kit. The heparin/ATIII complex was allowed to form at 37° C. for 2 minutes, peptide was added, the mixture was incubated for an additional 1-5 minutes, and then Factor Xa was added, and finally the color reagent, for one minute, and the absorbance was read at 405 nm. The increase in absorbance from the heparinized control to the test sample was divided by the difference in A405 between the heparinized control and the control without heparin to obtain the % reversal."}, "[3]": {"system": "Lovenox", "experiment": "Reversal of anti-Factor Xa activity in vitro (Stachrom Heparin chromogenic assay), Lovenox", "assay_type": "biochemical, human", "conditions": "0.5 U/ml anti-Factor Xa activity", "procedure": "as §1"}, "[4]": {"system": "Orgaran", "experiment": "Reversal of anti-Factor Xa activity in vitro (Stachrom Heparin chromogenic assay), Orgaran", "assay_type": "biochemical, human", "conditions": "0.5 U/ml anti-Factor Xa activity", "procedure": "as §1"}, "[5]": {"system": "unfractionated heparin", "experiment": "Reversal of anti-thrombin effects of unfractionated heparin in vitro (thrombin clotting time in plasma)", "assay_type": "biochemical, human", "conditions": "heparin 0.5 U/ml; thrombin standardized to clotting time 20-22 seconds", "procedure": "Plasma was obtained from normal donors. Thrombin concentration (human alpha thrombin, Enzyme Research Laboratories, South Bend, Ind.) was standardized to produce a clotting time of 20-22 seconds. Heparin was added at 0.5 IU anti-thrombin activity/ml. The clotting time for heparin alone was approximately 3 minutes. To test the effects of the peptides in this system, one minute after addition of heparin to the plasma, the peptides were added in concentrations ranging from 1-200 μg/ml. After one minute, thrombin was added and the clotting time determined. The effects of the peptides were concentration dependent. The clotting time was restored to normal values in all samples at the dosages shown below in Table III. The ability of the peptides to neutralize heparin inhibition of thrombin clotting time was consistent with the binding affinities shown in Table I, and with the effectiveness against low molecular weight heparin anti-Factor Xa activity in Table II."}},
  "data": [
    {"substance": "YPARRARYQWVRAKP [murine serglycin, cysteine replaced with alanine]", "values": [
      {"measurement": "heparin-binding affinity in words", "setting": "[1]", "result": "negligible"},
      {"measurement": "Percent Reversal of anti-Factor Xa Activity, Heparin (unfractionated)", "setting": "[2]; peptide 0.6 mg/ml in plasma", "result": 25.0, "unit": "%"},
      {"measurement": "Percent Reversal of anti-Factor Xa Activity, Lovenox", "setting": "[3]; peptide 0.6 mg/ml in plasma", "result": 0, "unit": "%"},
      {"measurement": "Percent Reversal of anti-Factor Xa Activity, Orgaran", "setting": "[4]; peptide 0.6 mg/ml in plasma", "result": 2.0, "unit": "%"}
    ]},
    {"substance": "(ARKKAAKA)5 (ARKKAAKAARKKAAKAARKKAAKAARKKAAKAARKKAAKA; protein fragment) [XBBBXXBX tandem repeat peptide]", "values": [
      {"measurement": "Percent Reversal of anti-Factor Xa Activity, Heparin (unfractionated)", "setting": "[2]; peptide 0.12 mg/ml in plasma", "result": 64.5, "unit": "%"},
      {"measurement": "Percent Reversal of anti-Factor Xa Activity, Heparin (unfractionated)", "setting": "[2]; peptide 0.4 mg/ml in plasma", "result": 93.0, "unit": "%"},
      {"measurement": "Percent Reversal of anti-Factor Xa Activity, Heparin (unfractionated)", "setting": "[2]; peptide 0.6 mg/ml in plasma", "result": 94.5, "unit": "%"},
      {"measurement": "Percent Reversal of anti-Factor Xa Activity, Lovenox", "setting": "[3]; peptide 0.12 mg/ml in plasma", "result": 68.5, "unit": "%"},
      {"measurement": "Percent Reversal of anti-Factor Xa Activity, Lovenox", "setting": "[3]; peptide 0.4 mg/ml in plasma", "result": 71.0, "unit": "%"},
      {"measurement": "Percent Reversal of anti-Factor Xa Activity, Lovenox", "setting": "[3]; peptide 0.6 mg/ml in plasma", "result": 81.5, "unit": "%"},
      {"measurement": "μg peptide/ml heparinized plasma needed to normalize thrombin time", "setting": "[5]", "result": "21 μg peptide/ml heparinized plasma"},
      {"measurement": "Percent Reversal of anti-Factor Xa Activity, Orgaran", "setting": "[4]; peptide 0.12 mg/ml in plasma", "result": 75.0, "unit": "%"},
      {"measurement": "Percent Reversal of anti-Factor Xa Activity, Orgaran", "setting": "[4]; peptide 0.4 mg/ml in plasma", "result": 75.0, "unit": "%"},
      {"measurement": "Percent Reversal of anti-Factor Xa Activity, Orgaran", "setting": "[4]; peptide 0.6 mg/ml in plasma", "result": 83.0, "unit": "%"}
    ]},
    {"substance": "AKKARAAKKARAAKKARAAKKARA [(AKKARA)4, XBBXBX tandem repeat peptide]", "values": [
      {"measurement": "heparin-binding affinity in words", "setting": "[1]", "result": "moderate"},
      {"measurement": "Percent Reversal of anti-Factor Xa Activity, Heparin (unfractionated)", "setting": "[2]; peptide 0.6 mg/ml in plasma", "result": 99, "unit": "%"},
      {"measurement": "Percent Reversal of anti-Factor Xa Activity, Lovenox", "setting": "[3]; peptide 0.6 mg/ml in plasma", "result": 73, "unit": "%"},
      {"measurement": "μg peptide/ml heparinized plasma needed to normalize thrombin time", "setting": "[5]", "result": "10 μg peptide/ml heparinized plasma"},
      {"measurement": "Percent Reversal of anti-Factor Xa Activity, Orgaran", "setting": "[4]; peptide 0.6 mg/ml in plasma", "result": 75, "unit": "%"}
    ]},
    {"substance": "(AKAAKKRA)3 (AKAAKKRAAKAAKKRAAKAAKKRA; protein fragment) [XBBBXXBX tandem repeat peptide, reversed orientation]", "values": [
      {"measurement": "Percent Reversal of anti-Factor Xa Activity, Heparin (unfractionated)", "setting": "[2]; peptide 0.6 mg/ml in plasma", "result": 94.0, "unit": "%"},
      {"measurement": "Percent Reversal of anti-Factor Xa Activity, Lovenox", "setting": "[3]; peptide 0.6 mg/ml in plasma", "result": 93.5, "unit": "%"},
      {"measurement": "μg peptide/ml heparinized plasma needed to normalize thrombin time", "setting": "[5]", "result": ">50 μg peptide/ml heparinized plasma"},
      {"measurement": "Percent Reversal of anti-Factor Xa Activity, Orgaran", "setting": "[4]; peptide 0.6 mg/ml in plasma", "result": 72.0, "unit": "%"}
    ]},
    {"substance": "ARKKAAKAARKKPAKAARKKAAKA", "values": [
      {"measurement": "Percent Reversal of anti-Factor Xa Activity, Heparin (unfractionated)", "setting": "[2]; peptide 0.6 mg/ml in plasma", "result": 57.5, "unit": "%"},
      {"measurement": "Percent Reversal of anti-Factor Xa Activity, Lovenox", "setting": "[3]; peptide 0.6 mg/ml in plasma", "result": 83.0, "unit": "%"},
      {"measurement": "Percent Reversal of anti-Factor Xa Activity, Orgaran", "setting": "[4]; peptide 0.6 mg/ml in plasma", "result": 67.0, "unit": "%"}
    ]},
    {"substance": "AAARRARAAAARAKA", "values": [
      {"measurement": "decrease in heparin-binding affinity versus native mouse SG peptide", "setting": "[1]; modified sequence versus YPARRARYQWVRCKP", "result": 350, "unit": "fold"}
    ]},
    {"substance": "AKKARA", "values": [
      {"measurement": "heparin-binding affinity in words", "setting": "[1]", "result": "do not bind heparin with a measurable affinity"}
    ]}
  ]
}
